5 compounds from patent US12391737B2, “Soluble NPY2 receptor agonists” (Boehringer Ingelheim International GmbH, priority 2020, dated 2025) can be followed below.

SMILES strings stand for the structures. *1 amine or outer side, *2 acyl side, *3 side chain or, on linkers, in order; H or OH if unused. Where a SMILES comes first, the peptide text is derived from it. Side-chain parts run from the residue outwards. The star is where a group is joined. C18 diacid = O=C(O)CCCCCCCCCCCCCCCCC(=O)*; γGlu = O=C(O)[C@H](CCC(=O)[*:2])N[*:1]; Isovaleryl = CC(C)CC(=O)*; Ahx = NCCCCCC(=O)O

In data set [1] the target is T1, Human Neuropeptide Y2 Receptor (Homo sapiens, UniProt P49146).
T1 construct: purchased CHEMICON HTS066M
T1 sequence (P49146 1-381): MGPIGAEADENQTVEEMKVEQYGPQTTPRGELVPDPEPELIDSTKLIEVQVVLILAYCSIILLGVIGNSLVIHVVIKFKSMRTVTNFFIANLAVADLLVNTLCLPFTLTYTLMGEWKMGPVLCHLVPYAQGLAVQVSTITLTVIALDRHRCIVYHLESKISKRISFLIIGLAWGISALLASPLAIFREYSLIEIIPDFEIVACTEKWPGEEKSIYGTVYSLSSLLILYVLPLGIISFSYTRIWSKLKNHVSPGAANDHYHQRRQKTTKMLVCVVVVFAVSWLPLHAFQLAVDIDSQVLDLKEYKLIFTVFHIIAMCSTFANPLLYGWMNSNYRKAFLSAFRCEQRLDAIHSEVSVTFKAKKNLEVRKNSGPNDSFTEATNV
Kind of data set: Radioligand binding competition assay (RLB). Conditions: Table 3, 125I-PYY(1-36) competition; read-out: Ki. In short, it runs like this:
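Displacement of radioligand is measured after 2 h at room temperature with receptor membranes in Mg2+/Ca2+ HEPES buffer, pH 7.4. Filter-bound radioactivity is counted and IC50 obtained from curve fitting.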

Another data set is described as follows: Solubility determination. Conditions: for Sol6: pH 6; for Sol7: pH 7. In short, it runs like this:
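Shake-flask style: 10 mg/ml peptide (TFA salt), 0.1 M sodium diphosphate pH 6.4/7.0, 600 rpm, 2 h, RT; filter; dilute 1 mg/ml in 50% MeCN; RP-UPLC, 0–100% B over 2 min, 50 °C. Solubility = sample/control area ratio. Final pH recorded.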

One may read the Ki as the dissociation constant of the complex between target and ligand, obtained from inhibition or displacement.

On to `CC(C)CC(=O)N[C@@H](C)C(=O)N1CCC[C@H]1C(=O)N[C@@H](CCC(=O)O)C(=O)N[C@@H](CCCCNC(=O)CCCCCNC(=O)CC[C@H](NC(=O)CCCCCCCCCCCCCCCCC(=O)O)C(=O)O)C(=O)N1CCC[C@H]1C(=O)N1CCC[C@H]1C(=O)N[C@@H](C)C(=O)N[C@@H](CC(=O)O)C(=O)N[C@@H](C)C(=O)N[C@@H](CO)C(=O)N1CCC[C@H]1C(=O)N[C@@H](CCC(=O)O)C(=O)N[C@@H](CCC(=O)O)C(=O)N[C@H](C(=O)N[C@@H](CCC(N)=O)C(=O)N[C@@H](CCCNC(=N)N)C(=O)N[C@@H](Cc1ccc(O)cc1)C(=O)N[C@@H](Cc1ccc(O)cc1)C(=O)N[C@H](C(=O)N[C@@H](CO)C(=O)N[C@@H](CC(C)C)C(=O)N[C@@H](CCCNC(=N)N)C(=O)N[C@@H](Cc1c[nH]cn1)C(=O)N[C@@H](Cc1ccc(O)cc1)C(=O)N[C@@H](Cc1ccc(O)cc1)C(=O)N[C@@H](CC(N)=O)C(=O)N[C@@H](Cc1c[nH]c2ccccc12)C(=O)N[C@@H](CC(C)C)C(=O)N[C@H](C(=O)N[C@@H](CCCNC(=N)N)C(=O)N[C@@H](CCC(N)=O)C(=O)N[C@@H](CCCNC(=N)N)C(=O)N[C@@H](Cc1ccc(O)cc1)C(N)=O)[C@@H](C)O)C(C)C)[C@@H](C)O` [Compound 69, N{alpha-4}-(3-methylbutanoyl)-N{epsilon-7}-(6-[(4S)-4-carboxy-4-(17-carboxyheptadecanamido)butanamido]hexanoyl)-[4A,7K,9P,10A,17T,18Q,22V,28Y,30W,31L]-hPYY(4-36)] (Isovaleryl-APEK([Ahx-γGlu-C18 diacid])PPADASPEETQRYYVSLRHYYNWLTRQRY-NH2), for which the Ki in data set [1] is 0.54 nM. In the data set “Solubility determination”, the “Sol6” value was 0.1 mg/mL and the “Sol7” value turned out to be 9.5 mg/mL.

For the compound `CC(C)CC(=O)N[C@@H](C)C(=O)N1CCC[C@H]1C(=O)N[C@@H](C)C(=O)N[C@@H](CCCCNC(=O)CCCCCNC(=O)CC[C@H](NC(=O)CCCCCCCCCCCCCCCCC(=O)O)C(=O)O)C(=O)N1CCC[C@H]1C(=O)N[C@@H](CCC(=O)O)C(=O)N[C@@H](CCC(=O)O)C(=O)N[C@@H](CC(=O)O)C(=O)N[C@@H](C)C(=O)N[C@@H](CO)C(=O)N1CCC[C@H]1C(=O)N[C@@H](CCC(=O)O)C(=O)N[C@@H](CCC(=O)O)C(=O)N[C@@H](CC(C)C)C(=O)N[C@@H](CCC(N)=O)C(=O)N[C@@H](CCCNC(=N)N)C(=O)N[C@@H](Cc1ccc(O)cc1)C(=O)N[C@@H](Cc1ccc(O)cc1)C(=O)N[C@H](C(=O)N[C@@H](CO)C(=O)N[C@@H](CC(C)C)C(=O)N[C@@H](CCCNC(=N)N)C(=O)N[C@@H](Cc1c[nH]cn1)C(=O)N[C@@H](Cc1ccc(O)cc1)C(=O)N[C@@H](CCC(N)=O)C(=O)N[C@@H](CC(N)=O)C(=O)N[C@@H](Cc1c[nH]c2ccccc12)C(=O)N[C@@H](CC(C)C)C(=O)N[C@H](C(=O)N[C@@H](CCCNC(=N)N)C(=O)N[C@@H](CCC(N)=O)C(=O)N[C@@H](CCCNC(=N)N)C(=O)N[C@@H](Cc1ccc(O)cc1)C(N)=O)[C@@H](C)O)C(C)C` [Compound 77, N{alpha-4}-(3-methylbutanoyl)-N{epsilon-7}-(6-[(4S)-4-carboxy-4-(17-carboxyheptadecanamido)butanamido]hexanoyl)-[4A,6A,7K,9E,18Q,22V,28Q,30W,31L]-hPYY(4-36)], in data set [1], the Ki stood at 9.73 nM. Further, in the data set “Solubility determination”, the “Sol6” value is greater than 10.0 mg/mL and the “Sol7” value stood at 9.0 mg/mL.

In the case of `CC(C)CC(=O)N[C@@H](C)C(=O)N1CCC[C@H]1C(=O)N[C@@H](CCC(=O)O)C(=O)N[C@@H](CCCCNC(=O)CCCCCNC(=O)CC[C@H](NC(=O)CCCCCCCCCCCCCCCCC(=O)O)C(=O)O)C(=O)N1CCC[C@H]1C(=O)N[C@@H](CCC(=O)O)C(=O)N[C@@H](CCC(=O)O)C(=O)N[C@@H](CC(=O)O)C(=O)N[C@@H](C)C(=O)N[C@H](C(=O)N1CCC[C@H]1C(=O)N[C@@H](CCC(=O)O)C(=O)N[C@@H](CCC(=O)O)C(=O)N[C@@H](CC(C)C)C(=O)N[C@@H](CCC(N)=O)C(=O)N[C@@H](CCCNC(=N)N)C(=O)N[C@@H](Cc1ccc(O)cc1)C(=O)N[C@@H](Cc1ccc(O)cc1)C(=O)N[C@H](C(=O)N[C@@H](CO)C(=O)N[C@@H](CC(C)C)C(=O)N[C@@H](CCCNC(=N)N)C(=O)N[C@@H](Cc1c[nH]cn1)C(=O)N[C@@H](Cc1ccc(O)cc1)C(=O)N[C@@H](Cc1ccc(O)cc1)C(=O)N[C@@H](CC(N)=O)C(=O)N[C@@H](Cc1c[nH]c2ccccc12)C(=O)N[C@@H](CC(C)C)C(=O)N[C@H](C(=O)N[C@@H](CCCNC(=N)N)C(=O)N[C@@H](CCC(N)=O)C(=O)N[C@@H](CCCNC(=N)N)C(=O)N[C@@H](Cc1ccc(O)cc1)C(N)=O)[C@@H](C)O)C(C)C)[C@@H](C)O` [Compound 173, N{alpha-4}-(3-methylbutanoyl)-N{epsilon-7}-(6-[(4S)-4-carboxy-4-(17-carboxyheptadecanamido)butanamido]hexanoyl)-[4A,7K,9E,13T,18Q,22V,28Y,30W,31L]-hPYY(4-36)], in data set [1], the Ki was found to be 4.07 nM. Further, in the data set “Solubility determination”, the “Sol6” value came out at 9.2 mg/mL and the “Sol7” value came to 9.6 mg/mL.

For `CC(C)CC(=O)N[C@@H](C)C(=O)N1CCC[C@H]1C(=O)N[C@@H](C)C(=O)N[C@@H](CCCCNC(=O)CCCCCNC(=O)CC[C@H](NC(=O)CCCCCCCCCCCCCCCCC(=O)O)C(=O)O)C(=O)N1CCC[C@H]1C(=O)N[C@@H](CCC(=O)O)C(=O)N[C@@H](CCC(=O)O)C(=O)N[C@@H](CC(=O)O)C(=O)N[C@@H](C)C(=O)N[C@@H](CO)C(=O)N1CCC[C@H]1C(=O)N[C@@H](CCC(=O)O)C(=O)N[C@@H](CCC(=O)O)C(=O)N[C@@H](CC(C)C)C(=O)N[C@@H](CCC(N)=O)C(=O)N[C@@H](CCCNC(=N)N)C(=O)N[C@@H](CCC(N)=O)C(=O)N[C@@H](Cc1ccc(O)cc1)C(=O)N[C@H](C(=O)N[C@@H](CO)C(=O)N[C@@H](CC(C)C)C(=O)N[C@@H](CCCNC(=N)N)C(=O)N[C@@H](Cc1c[nH]cn1)C(=O)N[C@@H](Cc1ccc(O)cc1)C(=O)N[C@@H](Cc1ccc(O)cc1)C(=O)N[C@@H](CC(N)=O)C(=O)N[C@@H](Cc1c[nH]c2ccccc12)C(=O)N[C@@H](CC(C)C)C(=O)N[C@H](C(=O)N[C@@H](CCCNC(=N)N)C(=O)N[C@@H](CCC(N)=O)C(=O)N[C@@H](CCCNC(=N)N)C(=O)N[C@@H](Cc1ccc(O)cc1)C(N)=O)[C@@H](C)O)C(C)C` [Compound 5, N{alpha-4}-(3-methylbutanoyl)-N{epsilon-7}-(6-[(4S)-4-carboxy-4-(17-carboxyheptadecanamido)butanamido]hexanoyl)[4A,6A,7K,9E,18Q,20Q,22V,28Y,30W,31L]-hPYY(4-36)], the Ki in data set [1] is 12.7 nM. In addition, in the data set “Solubility determination”, the “Sol6” value was 3.6 mg/mL and the “Sol7” value came to 8.8 mg/mL.

Consider `CC(C)CC(=O)N[C@@H](C)C(=O)N1CCC[C@H]1C(=O)N[C@@H](CCC(=O)O)C(=O)N[C@@H](CCCCNC(=O)CCCCCNC(=O)CC[C@H](NC(=O)CCCCCCCCCCCCCCCCC(=O)O)C(=O)O)C(=O)N1CCC[C@H]1C(=O)N[C@@H](CCC(=O)O)C(=O)N[C@@H](CCC(=O)O)C(=O)N[C@@H](C)C(=O)N[C@@H](C)C(=O)N[C@@H](CCC(=O)O)C(=O)N1CCC[C@H]1C(=O)N[C@@H](CCC(=O)O)C(=O)N[C@@H](CCC(=O)O)C(=O)N[C@@H](CC(C)C)C(=O)N[C@@H](CCC(N)=O)C(=O)N[C@@H](CCCNC(=N)N)C(=O)N[C@@H](Cc1ccc(O)cc1)C(=O)N[C@@H](Cc1ccc(O)cc1)C(=O)N[C@H](C(=O)N[C@@H](CO)C(=O)N[C@@H](CC(C)C)C(=O)N[C@@H](CCCNC(=N)N)C(=O)N[C@@H](Cc1c[nH]cn1)C(=O)N[C@@H](Cc1ccc(O)cc1)C(=O)N[C@@H](Cc1ccc(O)cc1)C(=O)N[C@@H](CC(N)=O)C(=O)N[C@@H](Cc1c[nH]c2ccccc12)C(=O)N[C@@H](CC(C)C)C(=O)N[C@H](C(=O)N[C@@H](CCCNC(=N)N)C(=O)N[C@@H](CCC(N)=O)C(=O)N[C@@H](CCCNC(=N)N)C(=O)N[C@@H](Cc1ccc(O)cc1)C(N)=O)[C@@H](C)O)C(C)C` [Compound 4, N{alpha-4}-(3-methylbutanoyl)-N{epsilon-7}-(6-[(4S)-4-carboxy-4-(17-carboxyheptadecanamido)butanamido]hexanoyl)[4A,7K,9E,11A,13E,18Q,22V,28Y,30W,31L]-hPYY(4-36)], for which the Ki in data set [1] is 4.65 nM. For the same compound, in “Solubility determination”, the “Sol6” value stood at 10.0 mg/mL and the “Sol7” value was found to be 10.0 mg/mL.
